# Laboratory results taken from patent publication US11006631B2, “Substituted pyrimidinyloxy pyridine derivatives as herbicides” (FMC Corporation, priority 2015, dated 2021).
# Columns and labels:
# Type in all cases: in vivo
# [1] = test system: sedge, umbrella (small-flower umbrella sedge, Cyperus difformis); experiment: Test B flooded paddy test, sedge, umbrella; settings: Flood, 250 g ai/ha; scale of 0 to 100
# Procedure, shortened: (§1)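 Scored visually 0–100 (0 no effect, 100 complete control) versus controls after 13 to 15 greenhouse days. Treatment: compound added to paddy water kept 3 cm above soil, on 2-leaf-stage plants.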
# [2] = test system: ryegrass, Italian (Italian ryegrass, Lolium multiflorum); experiment: Test A preemergence, ryegrass, Italian; settings: 0 to 100 scale
# Description: (§2) Seeds of plant species selected from bamyardgrass (Echinochloa crus-galli), kochia (Kochia scoparia), ragweed (common ragweed, Ambrosia elatior), ryegrass, Italian (Italian ryegrass, Lolium multiflorum), foxtail, giant (giant foxtail, Setaria faberii), pigweed (Amaranthus retroflexus), crabgrass, large (large crabgrass, Digitaria sanguinalis), momingglory (Ipomoea spp.), velvetleaf (Abutilon theophrasti), wheat (Triticum aestivum), and corn (Zea mays) were planted into a blend of loam soil and sand and treated preemergence with a directed soil spray using test chemicals formulated in a non-phytotoxic solvent mixture which included a surfactant. At the same time, plants selected from these crop and weed species and also blackgrass (Alopecurus myosuroides), and galium (catchweed bedstraw, Galium aparine) were planted in pots containing the same blend of loam soil and sand and treated with postemergence applications of test chemicals formulated in the same manner. Plants ranged in height from 2 to 10 cm and were in the one- to two-leaf stage for the postemergence treatment. Treated plants and untreated controls were maintained in a greenhouse for approximately 10 days, after which time all treated plants were compared to untreated controls and visually evaluated for injury. Plant response ratings, summarized in Table A, are based on a 0 to 100 scale where 0 is no effect and 100 is complete control. A dash (-) response means no test result.
# [3] = test system: velvetleaf (Abutilon theophrasti); experiment: Test C postemergence, velvetleaf
# Description: (§3) Seeds of plant species selected from blackgrass (Alopecurus myosuroides), ryegrass, Italian (Italian ryegrass, Lolium multiflorum), wheat (winter wheat, Triticum aestivum), galium (catchweed bedstraw, Galium aparine), corn (Zea mays), crabgrass, large (large crabgrass, Digitaria sanguinalis), foxtail, giant (giant foxtail, Setaria faberii), lambsquarters (Chenopodium album), morningglory (Ipomoea coccinea), nutsedge, yellow (yellow nutsedge, Cyperus esculentus), pigweed (Amaranthus retroflexus), johnsongrass (Sorghum halepense), ragweed (common ragweed, Ambrosia elatior), soybean (Glycine max), barnyardgrass (Echinochloa crus-galli), oilseed rape (Brassica napus), waterhemp (common waterhemp, Amaranthus rudis), chickweed (common chickweed, Stellaria media), oat, wild (wild oat, Avena fatua), kochia (Kochia scoparia), and velvetleaf (Abutilon theophrasti) were planted in pots containing Redi-Earth® planting medium (Scotts Company, 14111 Scottslawn Road, Marysville, Ohio 43041) comprising spaghnum peat moss, vermiculite, wetting agent and starter nutrients and treated with postemergence applications of a test chemical formulated in a non-phytotoxic solvent mixture which included a surfactant. Plants ranged in height from 2 to 18 cm (1- to 4-leaf stage) for postemergence treatments. Treated plants and controls were maintained in a greenhouse for 13 to 15 days, after which time all species were compared to controls and visually evaluated. Plant response ratings, summarized in Table C, are based on a scale of 0 to 100 where 0 is no effect and 100 is complete control. A dash (-) response means no test result.
# [4] = test system: barnyardgrass (Echinochloa crus-galli); experiment: Test B flooded paddy test, barnyardgrass; settings: Flood, 250 g ai/ha; scale of 0 to 100
# Procedure, shortened: as §1
# [5] = test system: ragweed (common ragweed, Ambrosia elatior); experiment: Test A postemergence, ragweed; settings: 0 to 100 scale
# Description: as §2
# [6] = test system: ryegrass, Italian (Italian ryegrass, Lolium multiflorum); experiment: Test C postemergence, ryegrass, Italian
# Description: as §3
# [7] = test system: pigweed (Amaranthus retroflexus); experiment: Test A postemergence, pigweed; settings: 0 to 100 scale
# Procedure, shortened: (§4)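 Seeds sown in loam–sand blend received a preemergence directed soil spray; postemergence plants at one- to two-leaf stage (2 to 10 cm) were sprayed. Compounds formulated in non-phytotoxic solvent with surfactant. Injury rated visually versus untreated controls after approximately 10 days in greenhouse, 0 (no effect) to 100 (complete control).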
# [8] = test system: ragweed (common ragweed, Ambrosia elatior); experiment: Test C postemergence, ragweed
# Description: as §3
# [9] = test system: wheat (winter wheat, Triticum aestivum); experiment: Test C postemergence, wheat
# Description: as §3, with “Plants ranged in height from 2 to 18 cm (1- to 4-leaf stage) for postemergence treatments.” left out, “Plant response ratings, summarized in Table C, are based on a scale of 0 to 100 where 0 is no effect and 100 is complete control. A dash (-) response means no test result.” left out
# [10] = test system: galium (catchweed bedstraw, Galium aparine); experiment: Test C postemergence, galium
# Description: as §3
# [11] = test system: barnyardgrass (Echinochloa crus-galli); experiment: Test A postemergence, barnyardgrass; settings: 0 to 100 scale
# Procedure, shortened: as §4
# [12] = test system: crabgrass, large (large crabgrass, Digitaria sanguinalis); experiment: Test C postemergence, crabgrass, large
# Description: as §3
# [13] = test system: corn (Zea mays); experiment: Test C postemergence, corn
# Description: as §3
# [14] = test system: corn (Zea mays); experiment: Test A postemergence, corn; settings: 0 to 100 scale
# Procedure, shortened: as §4
# [15] = test system: morningglory (Ipomoea coccinea); experiment: Test C postemergence, morningglory
# Description: as §3
# [16] = test system: soybean (Glycine max); experiment: Test C postemergence, soybean
# Description: as §3
# [17] = test system: nutsedge, yellow (yellow nutsedge, Cyperus esculentus); experiment: Test C postemergence, nutsedge, yellow
# Description: as §3
# [18] = test system: ducksalad (Heteranthera limosa); experiment: Test B flooded paddy test, ducksalad; settings: Flood, 250 g ai/ha; scale of 0 to 100
# Procedure, shortened: as §1
compound,measurement,setting,value
"FC(F)c1cc(-c2ncccc2Oc2ncc(Cl)cn2)on1 [Compound 5, 5-chloro-2-[[2-[3-(difluoromethyl)-5-isoxazolyl]-3-pyridinyl]oxy]pyrimidine]","Plant response rating, Sedge, Umbrella",[1],80
same,"Plant response rating, Ryegrass, Italian",[2]; 31 g ai/ha,0
same,"Plant response rating, Ryegrass, Italian",[2]; 125 g ai/ha,0
same,"Plant response rating, Velvetleaf",[3]; 16 g ai/ha,40
same,"Plant response rating, Velvetleaf",[3]; 31 g ai/ha,50
same,"Plant response rating, Velvetleaf",[3]; 62 g ai/ha,70
same,"Plant response rating, Velvetleaf",[3]; 125 g ai/ha,60
same,"Plant response rating, Barnyardgrass",[4],0
same,"Plant response rating, Ragweed",[5]; 31 g ai/ha,20
same,"Plant response rating, Ragweed",[5]; 125 g ai/ha,60
same,"Plant response rating, Ryegrass, Italian",[6]; 16 g ai/ha,0
same,"Plant response rating, Ryegrass, Italian",[6]; 31 g ai/ha,5
same,"Plant response rating, Ryegrass, Italian",[6]; 62 g ai/ha,0
same,"Plant response rating, Ryegrass, Italian",[6]; 125 g ai/ha,5
same,"Plant response rating, Pigweed",[7]; 31 g ai/ha,80
same,"Plant response rating, Pigweed",[7]; 125 g ai/ha,90
same,"Plant response rating, Ragweed",[8]; 16 g ai/ha,5
same,"Plant response rating, Ragweed",[8]; 31 g ai/ha,40
same,"Plant response rating, Ragweed",[8]; 62 g ai/ha,35
same,"Plant response rating, Ragweed",[8]; 125 g ai/ha,65
same,"Plant response rating, Wheat",[9]; 16 g ai/ha,5
same,"Plant response rating, Wheat",[9]; 31 g ai/ha,5
same,"Plant response rating, Galium",[10]; 16 g ai/ha,35
same,"Plant response rating, Galium",[10]; 31 g ai/ha,75
same,"Plant response rating, Galium",[10]; 62 g ai/ha,80
same,"Plant response rating, Galium",[10]; 125 g ai/ha,90
same,"Plant response rating, Barnyardgrass",[11]; 31 g ai/ha,0
same,"Plant response rating, Barnyardgrass",[11]; 125 g ai/ha,20
same,"Plant response rating, Crabgrass, Large",[12]; 16 g ai/ha,10
same,"Plant response rating, Crabgrass, Large",[12]; 31 g ai/ha,15
same,"Plant response rating, Crabgrass, Large",[12]; 62 g ai/ha,15
same,"Plant response rating, Crabgrass, Large",[12]; 125 g ai/ha,15
same,"Plant response rating, Corn",[13]; 16 g ai/ha,5
same,"Plant response rating, Corn",[13]; 31 g ai/ha,5
same,"Plant response rating, Corn",[13]; 62 g ai/ha,5
same,"Plant response rating, Corn",[13]; 125 g ai/ha,5
same,"Plant response rating, Corn",[14]; 31 g ai/ha,0
same,"Plant response rating, Corn",[14]; 125 g ai/ha,10
same,"Plant response rating, Morningglory",[15]; 16 g ai/ha,75
same,"Plant response rating, Morningglory",[15]; 31 g ai/ha,65
same,"Plant response rating, Morningglory",[15]; 62 g ai/ha,65
same,"Plant response rating, Morningglory",[15]; 125 g ai/ha,85
same,"Plant response rating, Soybean",[16]; 16 g ai/ha,60
same,"Plant response rating, Soybean",[16]; 31 g ai/ha,70
same,"Plant response rating, Soybean",[16]; 62 g ai/ha,40
same,"Plant response rating, Soybean",[16]; 125 g ai/ha,90
same,"Plant response rating, Nutsedge, Yellow",[17]; 16 g ai/ha,0
same,"Plant response rating, Nutsedge, Yellow",[17]; 31 g ai/ha,10
same,"Plant response rating, Nutsedge, Yellow",[17]; 62 g ai/ha,5
same,"Plant response rating, Nutsedge, Yellow",[17]; 125 g ai/ha,5
same,"Plant response rating, Ducksalad",[18],75
